Test results as given in patent publication US20150065416A1, “NOVEL DRUG COMBINATION” (FAB PHARMA SAS, priority 2013, published 2015).
≈ marks a conversion by molar mass, not a printed value.

Key:
[1] = tested on: A. baumannii SAN-94040; assay: Mouse model of A. baumannii pneumonia, Study 1: survival; format: in vivo, Acinetobacter baumannii
Method: (§1) The bacterial inoculum was prepared in order to obtain a suspension containing 10^8 CFU/mL of Acinetobacter baumannii in saline.
(§2) Experimentations were performed with six-week old female C3H/HeN mice (18-20 g, Breeding Centre JANVIER (Ile saint Genest Mayenne 53)) because of their particular susceptibility to Acinetobacter baumannii and the reproducibility of the results (inbreeding in the breed). Each mouse was individually marked and housed in cages containing five animals/cage under ventilated and controlled (temperature and humidity) atmosphere.
(§3) The mice were rendered transiently neutropenic by 2 intra-peritoneal (IP) injections of 150 μL of cyclophosphamide (Endoxan® 150 mg/kg) 4 (D-4) and 3 (D-3) days before the Acinetobacter baumannii inoculation (Day 0). This transient immunosuppression was sufficient to facilitate the development of the A. baumannii pneumonia while allowing the recovery of the neutrophil influx 2 (Day 2) days after inoculation in order to avoid or limit a systemic bacterial dissemination.
(§4) Mice were anesthetized by a mixture of oxygen and isoflurane. The bacterial inoculation was performed on Day 0 by intra-tracheal installation using an endotracheal catheter (50 μl of the suspension, thus 5.106 CFU). The positioning of the catheter in the trachea (instead of in the oesophagus) was checked by a “ring test”. The bacterial count in lungs was checked for all study groups by sacrificing one mouse immediately after inoculation.
Survival observations were assessed twice daily, up to 4 days post infection. The survival rates were compared with the Chi-square test or the Fisher exact test as appropriate. The survival curves were compared by the Kaplan-Meier method.
The aim of this experiment was to assess the […], with compound (I) via intra-peritoneal route at 200 mg/kg 3 times daily (every 8 hours) for 1 day alone and in combination with meropenem at 50 mg/kg 3 times daily (every 8 hours) for 1 day or with amikacin at 18 mg/kg 3 times daily (every 8 hours) for 1 day.

[2] = tested on: A. baumannii SAN-94040; assay: Mouse model of A. baumannii pneumonia, Study 2: bacterial counts in blood and tissues; format: in vivo, Acinetobacter baumannii
Method: as §1, §2, §3, §4
Sample time points: T0 (pre-inoculation), T24h (post inoculation), T48h and T72h.
Blood samples preparation: At each time point, three mice were sacrificed per group by cervical dislocation.
Tissue samples preparation: At each time point, three mice were sacrificed per group. Lungs, kidneys, liver and spleen were collected after the blood sampling and cervical dislocation. Tissues were wiped with a sterile gauze to remove blood contaminant outside. Tissues were then be weighed, finely ground and plated on agar for quantitative culture. Cultures were incubated at 37° C. for 18 to 24 hours.
The aim of this experiment was to assess the bacterial counts in blood, lungs, spleen, liver and kidneys of transiently neutropenic female C3H/HeN mice administered, 3 hours post-inoculation of A. baumannii SAN-94040 via intra-tracheal route, with compound (I) via intra-peritoneal route at 200 mg/kg 3 times daily (every 8 hours) for 1 day alone and in combination with meropenem at 50 mg/kg 3 times daily (every 8 hours) for 1 day or with amikacin at 18 mg/kg 3 times daily (every 8 hours) for 1 day.
All results concerning bacterial counts were expressed from Day 0 (inoculation) to 72 hours post-inoculation (Day 3). Bacterial counts on Day 3 were carried out only on surviving mice and results were more objectionable for interpretation. On Day 0, only bacterial count in lung of control mice was performed. Bacterial cell counts were determined as set out in the General Procedures.

[3] = tested on: A. baumannii SAN strain; assay: Bactericidal activity (time kill kinetics, Example 5); format: cell-based, Acinetobacter baumannii; conditions: alone at 2×MIC
Method: In addition, a second set of experiments involved the testing of compound(I)/additional antibacterial agent combinations of 2×/2×MIC. Samples were taken at 0, 3, 6 and 24 hours in order to determine colony forming units (CFU/mL).

[4] = tested on: A. baumannii isolates; assay: Individual antimicrobial susceptibility testing (MIC, broth microdilution, CLSI); format: cell-based, Acinetobacter baumannii
Method: In the antimicrobial susceptibility testing 77 isolates of A. baumannii (from 2010) in the following sub-groups were tested: • 22 isolates generally susceptible to antimicrobial agents (“Sus”) • 20 carbapenem-resistant isolates (e.g. “MPM-R”) • 20 aminoglycoside-resistant isolates (e.g. “AMK-R”) • 15 colistin-resistant isolates. (e.g. “COL-R”)
Minimum inhibitory concentration (MIC) endpoints were determined by broth microdilution according to CLSI guidelines (CLSI, M7-A8 & M100-S22, 2012). Panels were prepared at IHMA using cation-adjusted Mueller-Hinton broth. Colonies were taken directly from a second-pass culture plate and prepared to a suspension equivalent of the 0.5 McFarland standard using normal saline.
Testing was carried out as described in the General Procedures to determine minimum inhibitory concentration (MIC) end points for compound (I), amikacin, colistin, gentamicin, meropenem and tobramycin, for 77 A. baumannii isolates. Under the “MIC (μg/ml)” heading, the first column (Range) indicates the MIC end points for the particular number (N) of isolates tested, the second column (50%) provides an estimate of the concentration that inhibits 50% (MIC50) of bacterial isolates tested, and the third column (90%) provides an estimate of the concentration that inhibits 90% of the bacterial isolates tested.

[5] = Study 1, 0 h after infection, doses as E210
[6] = Study 1, 24 h after infection, doses as E210
[7] = Study 1, 48 h after infection, doses as E210
[8] = Study 1, 72 h after infection, doses as E210
[9] = Study 1, 96 h after infection, doses as E210
[10] = Study 1, C3H/HeN mice, 0 h after SAN-94040 infection, compound (I) 200 mg/kg, amikacin 18 mg/kg, meropenem 50 mg/kg q 8 h I.P.
[11] = Study 2, 24 h, compound (I) 200 mg/kg Q8h, amikacin 18 mg/kg, meropenem 50 mg/kg Q8h I.P. for 1 day
[12] = Acinetobacter baumannii, All isolates, N=77
[13] = Acinetobacter baumannii, Amikacin-resistant isolates, N=20
[14] = Acinetobacter baumannii, Colistin-resistant isolates, N=15
[15] = Acinetobacter baumannii, Meropenem-resistant isolates, N=20
[16] = Acinetobacter baumannii, Susceptible isolates, N=22
[17] = Amikacin-resistant isolates, N=20

SMILES	survivors (%) [1, 5] [%]	No. of survivors [1, 6]	survivors (%) [1, 6] [%]	No. of survivors [1, 7]	No. of survivors [1, 8]	No. of survivors [1, 9]	No. of survivors [1, 10]	lung bacterial counts [2, 11] [CFU/g Lung]	lung bacterial counts ([2]; Study 2, 48 h) [CFU/g Lung]	effect in time-kill study when tested alone [3]	MIC50 [4, 12] [µg/mL]	MIC90 [4, 12] [µg/mL]	MIC50 [4, 13] [µg/mL]	MIC90 [4, 13] [µg/mL]	MIC50 [4, 14] [µg/mL]	MIC90 [4, 14] [µg/mL]	MIC50 [4, 15] [µg/mL]	MIC90 [4, 15] [µg/mL]	MIC50 [4, 16] [µg/mL]	MIC90 [4, 16] [µg/mL]	further results
NCC[C@H](O)C(=O)N[C@@H]1C[C@H](N)[C@@H](O[C@H]2O[C@H](CN)[C@@H](O)[C@H](O)[C@H]2O)[C@H](O)[C@H]1O[C@H]1O[C@H](CO)[C@@H](O)[C@H](N)[C@H]1O [amikacin]	100	12	86	1	0	0	14	1.33E+09	4.41E+08	bactericidal	8 (≈ 13.7 µM)	> 128	> 128	> 128	64 (≈ 109 µM)	> 128	8 (≈ 13.7 µM)	128 (≈ 219 µM)	4 (≈ 6.83 µM)	8 (≈ 13.7 µM)	survivors (%) [1, 7]: 17%; MIC Range ([4]; Susceptible isolates, N=22): 0.25 to 8 µg/mL
C[C@@H](O)[C@H]1C(=O)N2C(C(=O)O)=C(S[C@@H]3CN[C@H](C(=O)N(C)C)C3)[C@H](C)[C@H]12 [meropenem]	100	14	100	11	6	6	14	3.75E+04	5.56E+06	bactericidal	4 (≈ 10.4 µM)	> 32	2 (≈ 5.22 µM)	16 (≈ 41.7 µM)	32 (≈ 83.4 µM)	> 32	> 32	> 32	0.25 (≈ 0.652 µM)	2 (≈ 5.22 µM)	survivors (%) [1, 7]: 79%; survivors (%) [1, 8]: 43%; survivors (%) [1, 9]: 43%; efficacy compared to the control group ([1]; Study 1, survival): significant efficacy; blood bacterial counts ([2]; Study 2, 24 h): 0 CFU/mL Blood; blood bacterial counts ([2]; Study 2, 48 h): 0 CFU/mL Blood; kidney bacterial counts ([2]; Study 2, 48 h): 0 CFU/g Kidneys; liver bacterial counts ([2]; Study 2, 48 h): 0 CFU/g Liver; blood bacterial counts ([2]; Study 2, 72 h): 0 CFU/mL Blood; kidney bacterial counts ([2]; Study 2, 72 h): 0 CFU/g Kidneys; liver bacterial counts ([2]; Study 2, 72 h): 0 CFU/g Liver; spleen bacterial counts ([2]; Study 2, 72 h): 0 CFU/g Spleen; lung bacterial counts ([2]; Study 2, 72 h, surviving mice only): 1.00E+00 CFU/g Lung; MIC Range [4, 17]: 0.5 to 32 µg/mL; MIC Range ([4]; Susceptible isolates, N=22): 0.06 to 4 µg/mL
CCc1cc(O)c(Oc2ccc(C(N)=O)cc2F)cc1F [compound (I), 4-(4-ethyl-5-fluoro-2-hydroxyphenoxy)-3-fluorobenzamide]	100	10	71	0	0	0	14	4.72E+09	3.75E+05	bacteriostatic	4 (≈ 13.6 µM)	8 (≈ 27.3 µM)	4 (≈ 13.6 µM)	8 (≈ 27.3 µM)	4 (≈ 13.6 µM)	> 32	8 (≈ 27.3 µM)	8 (≈ 27.3 µM)	4 (≈ 13.6 µM)	8 (≈ 27.3 µM)	survivors (%) [1, 8]: 0%; time post-infection within which all animals died ([1]; Study 1, SAN-94040): ≤ 48 h; range of the majority of MICs ([4]; 77 isolates): 2 to 8 µg/mL; MIC ([4]; Acinetobacter baumannii, 77 isolates, FIG. 1 and 2, read-out: mode MIC): 4 µg/mL (≈ 13.6 µM); MIC Range [4, 17]: 2 to 8 µg/mL; MIC Range ([4]; Susceptible isolates, N=22): 0.5 to 8 µg/mL; MICs ranging ([4]; amikacin-R isolates): 2 to 8 µg/mL; MICs ranging ([4]; susceptible isolates): 0.5 to 8 µg/mL
